Measured values: patent publication US20230167127A1, “COMPOUNDS AND THEIR USE IN THE TREATMENT OF BACTERIAL INFECTION” (Hoffmann-La Roche Inc., priority 2020, published 2023)
pIC50: −log10 of the molar value. Where a name gives a salt, the structure may show the parent alone.

System: Escherichia coli ATCC 25922
Assay: 50% growth inhibitory concentration (IC50) determination, Iso-Sensitest broth dilution
Format: cell-based
Conditions: Escherichia coli, ATCC25922, 16 h, strain Escherichia coli ATCC 25922; 10-point broth dilution, optical density at 600 nm over 16 h; read-out: Escherichia coli growth inhibition IC50
Method in brief: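 10-point twofold Iso-Sensitest broth dilution (e.g. 50 to 0.097 μM final) with DMSO stocks, incubated at 35±2° C. Growth followed by OD 600 nm every 20 min over 16 h; IC50 derived from growth inhibition during logarithmic phase.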

Row | SMILES | pIC50
1 | N#Cc1cc(OCC2(N)CC2)cc2c1CC(CNCCC1CN(c3ccc4c(n3)NC(=O)CO4)C(=O)O1)C2 (centres unmarked) [Example 185, 6-[(1-aminocyclopropyl)methoxy]-2-[[2-[2-oxo-3-(3-oxo-4H-pyrido[3,2-b][1,4]oxazin-6-yl)-1,3-oxazolidin-5-yl]ethylamino]methyl]-2,3-dihydro-1H-indene-4-carbonitrile] | > 7.01
2 | Cc1c(F)cnc2c1CC(CN1CCC3(CC1)CN(c1cnc4c(n1)NC(=O)CO4)C(=O)O3)C2 (centres unmarked) [Example 301, 6-[8-[(3-fluoro-4-methyl-6,7-dihydro-5H-cyclopenta[b]pyridin-6-yl)methyl]-2-oxo-1-oxa-3,8-diazaspiro[4.5]decan-3-yl]-4H-pyrazino[2,3-b][1,4]oxazin-3-one] | > 7.01
3 | N#Cc1cc(OCc2cc[nH]n2)cc2c1CC(CNCCC1CN(c3cnc4c(n3)NC(=O)CO4)C(=O)O1)C2 (centres unmarked) [Example 404, 2-[[2-[2-oxo-3-(3-oxo-4H-pyrazino[2,3-b][1,4]oxazin-6-yl)-1,3-oxazolidin-5-yl]ethylamino]methyl]-6-(1H-pyrazol-3-ylmethoxy)-2,3-dihydro-1H-indene-4-carbonitrile; formic acid] | > 7.01
4 | Cc1ncc(F)c2c1CC(CN[C@H]1C[C@@H](C3CN(c4cnc5c(n4)NC(=O)CO5)C(=O)O3)C1)C2 (some centres unmarked) [Example 362] | 6.80
5 | O=C1COc2ncc(N3CC(CCNCC4Cc5cc(OC6CNC6)cc(F)c5C4)OC3=O)nc2N1 (centres unmarked) [Example 358, 6-[5-[2-[[6-(azetidin-3-yloxy)-4-fluoro-2,3-dihydro-1H-inden-2-yl]methylamino]ethyl]-2-oxo-1,3-oxazolidin-3-yl]-4H-pyrazino[2,3-b][1,4]oxazin-3-one; hydrochloride] | > 7.01
6 | O=C1COc2ncc(N3CC(CCNCC4Cc5cc(OCCn6ccnn6)cc(F)c5C4)OC3=O)nc2N1 (centres unmarked) [Example 344, 6-[5-[2-[[4-fluoro-6-[2-(triazol-1-yl)ethoxy]-2,3-dihydro-1H-inden-2-yl]methylamino]ethyl]-2-oxo-1,3-oxazolidin-3-yl]-4H-pyrazino[2,3-b][1,4]oxazin-3-one; formic acid] | 6.69
7 | Cc1ncc(F)c2c1CC(CCN1CC3(C1)CN(c1cnc4c(n1)NC(=O)CO4)C(=O)O3)C2 (centres unmarked) [Example 326, 6-[2-[2-(4-fluoro-1-methyl-6,7-dihydro-5H-cyclopenta[c]pyridin-6-yl)ethyl]-6-oxo-5-oxa-2,7-diazaspiro[3.4]octan-7-yl]-4H-pyrazino[2,3-b][1,4]oxazin-3-one] | 6.86
8 | N#Cc1cccc2c1CC(NCC(O)CC1CN(c3ccc4c(n3)NC(=O)CO4)C(=O)O1)C2 (centres unmarked) [Example 238, 2-[[2-Hydroxy-3-[2-oxo-3-(3-oxo-4H-pyrido[3,2-b][1,4]oxazin-6-yl)-1,3-oxazolidin-5-yl]propyl]amino]-2,3-dihydro-1H-indene-4-carbonitrile hydrochloride] | 6.77
9 | N[C@H]1c2cccc(Cl)c2C[C@@H]1CNCC[C@@H]1CN(c2cnc3c(n2)NC(=O)CO3)C(=O)O1 [Example 403, 6-[(5R)-5-[2-[[(1R,2R)-1-amino-4-chloro-2,3-dihydro-1H-inden-2-yl]methylamino]ethyl]-2-oxo-1,3-oxazolidin-3-yl]-4H-pyrazino[2,3-b][1,4]oxazin-3-one] | > 7.01
10 | Cn1cc(COc2cc(C#N)c3c(c2)CC(CNCCC2CN(c4cnc5c(n4)NC(=O)CO5)C(=O)O2)C3)cn1 (centres unmarked) [Example 390, 6-[(1-methylpyrazol-4-yl)methoxy]-2-[[2-[2-oxo-3-(3-oxo-4H-pyrazino[2,3-b][1,4]oxazin-6-yl)-1,3-oxazolidin-5-yl]ethylamino]methyl]-2,3-dihydro-1H-indene-4-carbonitrile] | 6.79
11 | Cn1nnnc1COc1cc(C#N)c2c(c1)CC(CNCCC1CN(c3cnc4c(n3)NC(=O)CO4)C(=O)O1)C2 (centres unmarked) [Example 391, 6-[(1-methyltetrazol-5-yl)methoxy]-2-[[2-[2-oxo-3-(3-oxo-4H-pyrazino[2,3-b][1,4]oxazin-6-yl)-1,3-oxazolidin-5-yl]ethylamino]methyl]-2,3-dihydro-1H-indene-4-carbonitrile] | 6.59
12 | N#Cc1c(OCC2CCN2)ccc2c1CC(CNCCC1CN(c3ccc4c(n3)NC(=O)CO4)C(=O)O1)C2 (centres unmarked) [Example 137, 5-(azetidin-2-ylmethoxy)-2-[[2-[2-oxo-3-(3-oxo-4H-pyrido[3,2-b][1,4]oxazin-6-yl)-1,3-oxazolidin-5-yl]ethylamino]methyl]-2,3-dihydro-1H-indene-4-carbonitrile; formic acid] | 6.10
13 | Cc1cnc(C)c2c1CC(CNCCC1CN(c3cnc4c(n3)NC(=O)CO4)C(=O)O1)C2 (centres unmarked) [Example 268, 6-[5-[2-[(1,4-Dimethyl-6,7-dihydro-5H-cyclopenta[c]pyridin-6-yl)methylamino]ethyl]-2-oxo-1,3-oxazolidin-3-yl]-4H-pyrazino[2,3-b][1,4]oxazin-3-one] | > 7.01
14 | NC1c2cccc(Cl)c2CC1CNCCC1CN(c2cnc3c(n2)NC(=O)CO3)C(=O)O1 (racemic) [Example 136, 6-[2-oxo-5-[2-[[rac-1,2-trans-1-amino-4-chloro-2,3-dihydro-1H-inden-2-yl]methylamino]ethyl]-1,3-oxazolidin-3-yl]-4H-pyrazino[2,3-b][1,4]oxazin-3-one; formic acid] | 6.95
15 | N#Cc1cc(OCc2cocn2)cc2c1CC(CNCCC1CN(c3cnc4c(n3)NC(=O)CO4)C(=O)O1)C2 (centres unmarked) [Example 386, 6-(1,3-oxazol-4-ylmethoxy)-2-[[2-[2-oxo-3-(3-oxo-4H-pyrazino[2,3-b][1,4]oxazin-6-yl)-1,3-oxazolidin-5-yl]ethylamino]methyl]-2,3-dihydro-1H-indene-4-carbonitrile] | > 7.01
16 | Cc1cnc(C)c2c1CC(CNCCC1CN(c3ccc4c(n3)NC(=O)CO4)C(=O)O1)C2 (centres unmarked) [Example 98, 6-[5-[2-[(1,4-dimethyl-6,7-dihydro-5H-cyclopenta[c]pyridin-6-yl)methylamino]ethyl]-2-oxo-1,3-oxazolidin-3-yl]-4H-pyrido[3,2-b][1,4]oxazin-3-one] | > 7.01
17 | O=C1COc2ncc(N3CC(CCNCC4Cc5ncc(F)c(Cl)c5C4)OC3=O)nc2N1 (centres unmarked) [Example 319, 6-[5-[2-[(4-chloro-3-fluoro-6,7-dihydro-5H-cyclopenta[b]pyridin-6-yl)methylamino]ethyl]-2-oxo-1,3-oxazolidin-3-yl]-4H-pyrazino[2,3-b][1,4]oxazin-3-one; formic acid] | > 7.01
18 | O=C1COc2ccc(N3CC(CCCNCC4Cc5cccc(Cl)c5C4)OC3=O)nc2N1 (centres unmarked) [Example 2, 6-[5-[3-[(4-chloro-2,3-dihydro-1H-inden-2-yl)methylamino]propyl]-2-oxo-1,3-oxazolidin-3-yl]-4H-pyrido[3,2-b][1,4]oxazin-3-one] | 6.48
19 | Cc1nccc2c1CC(CNCCC1CN(c3ccc4c(n3)NC(=O)CO4)C(=O)O1)C2O (racemic) [Example 43, 6-[2-oxo-5-[2-[[rac-(5,6-trans)-5-hydroxy-1-methyl-6,7-dihydro-5H-cyclopenta[c]pyridin-6-yl]methylamino]ethyl]-1,3-oxazolidin-3-yl]-4H-pyrido[3,2-b][1,4]oxazin-3-one; formic acid] | 5.38
20 | Cc1ncc(F)c2c1CC(NCCCC1CN(c3ccc4c(n3)NC(=O)CO4)C(=O)O1)C2 (centres unmarked) [Example 78, 6-[5-[3-[(4-fluoro-1-methyl-6,7-dihydro-5H-cyclopenta[c]pyridin-6-yl)amino]propyl]-2-oxo-1,3-oxazolidin-3-yl]-4H-pyrido[3,2-b][1,4]oxazin-3-one] | 6.81
21 | NC(=O)COc1cc(F)c2c(c1)CC(CNCCc1cn(-c3cnc4c(n3)NC(=O)CO4)c(=O)o1)C2 (centres unmarked) [Example 306, 2-[[7-fluoro-2-[[2-[2-oxo-3-(3-oxo-4H-pyrazino[2,3-b][1,4]oxazin-6-yl)-1,3-oxazol-5-yl]ethylamino]methyl]-2,3-dihydro-1H-inden-5-yl]oxy]acetamide; formic acid] | > 7.01
22 | N#Cc1c(OCCN2CCNCC2)ccc2c1CC(CNCCC1CN(c3ccc4c(n3)NC(=O)CO4)C(=O)O1)C2 (centres unmarked) [Example 143, 2-[[2-[2-oxo-3-(3-oxo-4H-pyrido[3,2-b][1,4]oxazin-6-yl)-1,3-oxazolidin-5-yl]ethylamino]methyl]-5-(2-piperazin-1-ylethoxy)-2,3-dihydro-1H-indene-4-carbonitrile; formic acid] | 6.08
23 | NCCOc1ccc2c(c1Cl)CC(NCCCC1CN(c3ccc4c(n3)NC(=O)CO4)C(=O)O1)C2 (centres unmarked) [Example 118, 6-[5-[3-[[5-(2-aminoethoxy)-4-chloro-2,3-dihydro-1H-inden-2-yl]amino]propyl]-2-oxo-1,3-oxazolidin-3-yl]-4H-pyrido[3,2-b][1,4]oxazin-3-one; formic acid] | > 7.01
24 | CC(C)(N)COc1cc(F)c2c(c1F)CC(CN1CCC3(CC1)CN(c1cnc4c(n1)NC(=O)CO4)C(=O)O3)C2 (centres unmarked) [Example 412, 6-[8-[[5-(2-amino-2-methylpropoxy)-4,7-difluoro-2,3-dihydro-1H-inden-2-yl]methyl]-2-oxo-1-oxa-3,8-diazaspiro[4.5]decan-3-yl]-4H-pyrazino[2,3-b][1,4]oxazin-3-one; formic acid] | > 7.01
25 | Cc1ncc(F)c2c1CC(CNCCC1(C)CN(c3cnc4c(n3)NC(=O)CO4)C(=O)O1)C2 (centres unmarked) [Example 340, 6-[5-[2-[(4-fluoro-1-methyl-6,7-dihydro-5H-cyclopenta[e]pyridin-6-yl)methylamino]ethyl]-5-methyl-2-oxo-1,3-oxazolidin-3-yl]-4H-pyrazino[2,3-b][1,4]oxazin-3-one] | 6.45
26 | NC1(COc2cc(F)c3c(c2F)CC(CN2CCC4(CC2)CN(c2cnc5c(n2)NC(=O)CO5)C(=O)O4)C3)CC1 (centres unmarked) [Example 410, 6-[8-[[5-[(1-aminocyclopropyl)methoxy]-4,7-difluoro-2,3-dihydro-1H-inden-2-yl]methyl]-2-oxo-1-oxa-3,8-diazaspiro[4.5]decan-3-yl]-4H-pyrazino[2,3-b][1,4]oxazin-3-one; formic acid] | > 7.01
